The results in this text go back to patent US20240148821A1, “PHARMACEUTICAL USE OF CYCLIC PEPTIDE COMPOUND” (CHUGAI SEIYAKU KABUSHIKI KAISHA, priority 2021, published 2024).

Numbered stars: 1 amine (or outer) side, 2 acyl side, 3 side chain; on linkers, the order of the positions; unused ones are H or OH. Bridge positions count the residues as written; N and C are the ends. Square brackets hold non-standard residues; d marks the D form. Peptide text beside a SMILES is read from it. * marks the point of attachment. hPhe(3,5-F2-4-CF3) = N[C@@H](CCc1cc(F)c(C(F)(F)F)c(F)c1)C(=O)O; hPhe(3-Cl-4-CF3) = N[C@@H](CCc1ccc(C(F)(F)F)c(Cl)c1)C(=O)O; hPhe(3-F,4-CF3) = N[C@@H](CCc1ccc(C(F)(F)F)c(F)c1)C(=O)O; NEtPhe(4-CF3) = CCN[C@@H](Cc1ccc(C(F)(F)F)cc1)C(=O)O; NMePhe(4-CF3) = CN[C@@H](Cc1ccc(C(F)(F)F)cc1)C(=O)O; hPhe(4-CF3) = N[C@@H](CCc1ccc(C(F)(F)F)cc1)C(=O)O; NEtPhe(4-Me) = CCN[C@@H](Cc1ccc(C)cc1)C(=O)O; NMePhe(4-Cl) = CN[C@@H](Cc1ccc(Cl)cc1)C(=O)O; hPhe(4-Cl) = N[C@@H](CCc1ccc(Cl)cc1)C(=O)O; NMedβ3hAla = C[C@H](CC(=O)[*:2])N(C)[*:1]; NMeAla(cPent) = CN[C@@H](CC1CCCC1)C(=O)O; Phe(3-Cl) = N[C@@H](Cc1cccc(Cl)c1)C(=O)O; NMeGly(cPent) = CN[C@H](C(=O)O)C1CCCC1; Pro(4,4-F2) = O=C(O)[C@@H]1CC(F)(F)CN1; NMeCha = CN[C@@H](CC1CCCCC1)C(=O)O; Hyp = O=C(O)[C@@H]1C[C@@H](O)CN1; NMeChg = CN[C@H](C(=O)O)C1CCCCC1; NMeF = CN[C@@H](Cc1ccccc1)C(=O)O; NMeI = CC[C@H](C)[C@H](NC)C(=O)O; NMeT = CN[C@H](C(=O)O)[C@@H](C)O; NMeD = CN[C@@H](CC(=O)O)C(=O)O; NMeL = CN[C@@H](CC(C)C)C(=O)O; NMeV = CN[C@H](C(=O)O)C(C)C; Azetidin(1-yl) = C1CN(*)C1; NMeS = CN[C@@H](CO)C(=O)O; NMeA = CN[C@@H](C)C(=O)O; Piperidide = C1CCN(*)CC1; Pyrrolidide = C1CCN(*)C1; Ac5c = NC1(C(=O)O)CCCC1; Aze = O=C(O)[C@@H]1CCN1; Ac4c = NC1(C(=O)O)CCC1; Isopentyl = CC(C)CC*; βAla = NCCC(=O)O; Sar = CNCC(=O)O

The target of the assay is protein-protein interaction between Kras and SOS1 (biotin-tagged human Kras loaded with GDP, His-tagged human SOS1) (Homo sapiens (Human), UniProt P01116, G12D). Description: Protein-protein interaction inhibition between Kras and SOS1 (KrasG12D-SOS PPI) using AlphaScreen.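 Further: kras produced in E. coli, Ni-coupled donor beads and streptavidin acceptor beads, excitation 680 nm with emission detected at 520–620 nm via singlet oxygen transfer.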 The assay is classed as biochemical. Particulars: AlphaScreen; biotin-tagged human Kras loaded with GDP, His-tagged human SOS1; read-out: KRAS G12D-SOS PPI IC50. In general terms: In Alpha technology, singlet oxygen from a donor bead excites a nearby acceptor bead.
With `CC[C@H](C)[C@@H]1NC(=O)[C@H](CC(C)C)N(C)C(=O)C[C@@H](C)N(C)C(=O)[C@H](C2CCCC2)N(C)C(=O)C2(CCCC2)NC(=O)[C@@H]2CC(F)(F)CN2C(=O)[C@H](CCc2cc(F)c(C(F)(F)F)c(F)c2)NC(=O)CN(C)C(=O)[C@H](Cc2ccc(C(F)(F)F)cc2)N(C)C(=O)[C@@H]2CCN2C(=O)[C@H](C)N(C)C1=O` [Compound 900] (cyclo([Ac5c][NMeGly(cPent)][NMedβ3hAla][NMeL]I[NMeA][Aze][NMePhe(4-CF3)][Sar][hPhe(3,5-F2-4-CF3)][Pro(4,4-F2)])), the IC50 worked out at 0.84 nM.

For the compound `CC[C@H](C)[C@@H]1NC(=O)[C@H](CC(C)C)N(C)C(=O)C[C@@H](C)N(C)C(=O)[C@H]([C@@H](C)CC)N(C)C(=O)C2(CCCC2)NC(=O)[C@@H]2CCCN2C(=O)[C@H](CCc2ccc(C(F)(F)F)c(F)c2)NC(=O)CN(C)C(=O)[C@H](C2CCCC2)N(C)C(=O)[C@@H]2CCN2C(=O)[C@H](C)N(C)C1=O` [Compound 909] (cyclo([Ac5c][NMeI][NMedβ3hAla][NMeL]I[NMeA][Aze][NMeGly(cPent)][Sar][hPhe(3-F,4-CF3)]P)), the IC50 stood at 20 nM.

For `CC[C@H](C)[C@@H]1NC(=O)[C@H](CC(C)C)N(C)C(=O)C[C@@H](C(=O)N2CCCCC2)N(C)C(=O)[C@H](C(C)C)N(C)C(=O)C2(CCCC2)NC(=O)[C@@H]2CCCN2C(=O)[C@H](CCc2ccc(Cl)cc2)NC(=O)CN(C)C(=O)[C@H](CC2CCCCC2)N(C)C(=O)[C@@H]2CCN2C(=O)CN(C)C1=O` [Compound 916] ([NMeL]I[Sar][Aze][NMeCha][Sar][hPhe(4-Cl)]P[Ac5c][NMeV][NMeD]-Piperidide; lactam N-11), the IC50 is 42 nM.

In the case of `CC[C@H](C)[C@@H]1NC(=O)[C@H](CC(C)C)N(C)C(=O)C[C@@H](C(=O)N2CCCC2)N(C)C(=O)[C@H](C2CCCC2)N(C)C(=O)C2(CCCC2)NC(=O)[C@@H]2CCCN2C(=O)[C@H](CCc2ccc(C(F)(F)F)c(F)c2)NC(=O)CN(C)C(=O)[C@H](C2CCCC2)N(C)C(=O)[C@@H]2CCN2C(=O)[C@H](C)N(C)C1=O` [Compound 918] ([NMeL]I[NMeA][Aze][NMeGly(cPent)][Sar][hPhe(3-F,4-CF3)]P[Ac5c][NMeGly(cPent)][NMeD]-Pyrrolidide; lactam N-11), the IC50 came to 0.89 nM.

Take `CC[C@H](C)[C@@H]1NC(=O)[C@H](CC2CCCC2)N(C)C(=O)C[C@@H](C(=O)N2CCC2)N(C)C(=O)[C@H](C2CCCC2)N(C)C(=O)C2(CCCC2)NC(=O)[C@@H]2CCCN2C(=O)[C@H](CCc2ccc(C(F)(F)F)c(Cl)c2)NC(=O)CN(C)C(=O)[C@H](CC2CCCCC2)N(C)C(=O)[C@@H]2CCN2C(=O)[C@H](C)NC1=O` [Compound 921] ([NMeAla(cPent)]IA[Aze][NMeCha][Sar][hPhe(3-Cl-4-CF3)]P[Ac5c][NMeGly(cPent)][NMeD]-{Azetidin(1-yl)}; lactam N-11): the IC50 was 1.1 nM.

For the compound `CC[C@H](C)[C@@H]1NC(=O)[C@H](C(C)C)N(C)C(=O)CCNC(=O)[C@H](CC(C)C)N(C)C(=O)C2(CCCC2)NC(=O)[C@H](CC(C)C)N(C)C(=O)[C@H](CCc2ccc(C(F)(F)F)cc2)NC(=O)CN(C)C(=O)[C@H](Cc2ccc(Cl)cc2)N(C)C(=O)CN(C)C(=O)CN(C)C1=O` [Compound 923] (cyclo([Ac5c][NMeL][βAla][NMeV]I[Sar][Sar][NMePhe(4-Cl)][Sar][hPhe(4-CF3)][NMeL])), the IC50 was 230 nM.

With `CCO[C@@H]1C[C@H]2C(=O)N(C)[C@@H](COCCC(C)C)C(=O)N(C)[C@@H](CC(C)C)C(=O)N[C@H](C(=O)N3CCCC3)CC(=O)N(C)[C@@H](C)C(=O)N[C@@H]([C@@H](C)CC)C(=O)N(C)CC(=O)N(C)CC(=O)N(C)[C@@H](Cc3ccc(Cl)cc3)C(=O)N(C)CC(=O)N[C@@H](Cc3cccc(Cl)c3)C(=O)N2C1` [Compound 925] ([NMeA]I[Sar][Sar][NMePhe(4-Cl)][Sar][Phe(3-Cl)][Hyp](Et)[NMeS](Isopentyl)[NMeL]D-Pyrrolidide; lactam N-11), the half-maximal inhibitory concentration (IC50) was found to be 360 nM.

Take `CC[C@H](C)[C@@H]1NC(=O)[C@H](C)N(C)C(=O)C[C@@H](C)N(C)C(=O)[C@H](CC(C)C)N(C)C(=O)[C@H](Cc2ccccc2)N(C)C(=O)[C@H](CC(C)C)NC(=O)[C@H](CCc2ccc(C(F)(F)F)cc2)NC(=O)CN(C)C(=O)[C@H](Cc2ccc(Cl)cc2)N(C)C(=O)CN(C)C(=O)CN(C)C1=O` [Compound 927] (cyclo(I[Sar][Sar][NMePhe(4-Cl)][Sar][hPhe(4-CF3)]L[NMeF][NMeL][NMedβ3hAla][NMeA])): the IC50 worked out at 23 nM.

Consider `CCO[C@@H]1C[C@H]2C(=O)NC3(CCC3)C(=O)N(C)[C@@H](C3CCCCC3)C(=O)N(C)[C@H](C)CC(=O)N(C)[C@@H](CC(C)C)C(=O)N[C@@H]([C@@H](C)CC)C(=O)N(C)[C@@H](C)C(=O)N3CC[C@H]3C(=O)N(CC)[C@@H](Cc3ccc(C)cc3)C(=O)N(C)CC(=O)N[C@@H](CCc3ccc(C(F)(F)F)c(Cl)c3)C(=O)N2C1` [Compound 928] (cyclo([Ac4c][NMeChg][NMedβ3hAla][NMeL]I[NMeA][Aze][NEtPhe(4-Me)][Sar][hPhe(3-Cl-4-CF3)][Hyp](Et))), for which the IC50 worked out at 27 nM.

On to `CC[C@H](C)[C@@H]1NC(=O)[C@H](CC(C)C)N(C)C(=O)C[C@@H](C(=O)N2CCCCC2)N(C)C(=O)[C@H](C(C)C)N(C)C(=O)C2(CCCC2)NC(=O)[C@@H]2CCCN2C(=O)[C@H](CCc2ccc(C(F)(F)F)c(Cl)c2)NC(=O)CN(C)C(=O)[C@H]([C@@H](C)OC)N(C)C(=O)[C@@H]2CCN2C(=O)[C@H](C)N(C)C1=O` [Compound 929] ([NMeL]I[NMeA][Aze][NMeT](Me)[Sar][hPhe(3-Cl-4-CF3)]P[Ac5c][NMeV][NMeD]-Piperidide; lactam N-11), for which the 50% inhibitory concentration (IC50) is 4.1 nM.

Consider `CCO[C@@H]1C[C@H]2C(=O)NC3(CCCC3)C(=O)N(C)[C@@H]([C@@H](C)CC)C(=O)N(C)[C@H](C)CC(=O)N(C)[C@@H](CC(C)C)C(=O)N[C@@H]([C@@H](C)CC)C(=O)N(C)[C@@H](C)C(=O)N3CC[C@H]3C(=O)N(CC)[C@@H](Cc3ccc(C(F)(F)F)cc3)C(=O)N(C)CC(=O)N[C@@H](CCc3ccc(C(F)(F)F)c(Cl)c3)C(=O)N2C1` [Compound 932] (cyclo([Ac5c][NMeI][NMedβ3hAla][NMeL]I[NMeA][Aze][NEtPhe(4-CF3)][Sar][hPhe(3-Cl-4-CF3)][Hyp](Et))), for which the IC50 turned out to be 5.4 nM.

Consider `CC[C@H](C)[C@@H]1NC(=O)[C@H](CC(C)C)N(C)C(=O)C[C@@H](C)N(C)C(=O)[C@H](C2CCCC2)N(C)C(=O)C2(CCC2)NC(=O)[C@@H]2CC(F)(F)CN2C(=O)[C@H](CCc2ccc(C(F)(F)F)c(Cl)c2)NC(=O)CN(C)C(=O)[C@H](Cc2ccc(C(F)(F)F)cc2)N(CC)C(=O)[C@@H]2CCN2C(=O)[C@H](C)N(C)C1=O` [Compound 949] (cyclo([Ac4c][NMeGly(cPent)][NMedβ3hAla][NMeL]I[NMeA][Aze][NEtPhe(4-CF3)][Sar][hPhe(3-Cl-4-CF3)][Pro(4,4-F2)])), for which the IC50 was determined as 1.3 nM.

`CCO[C@@H]1C[C@H]2C(=O)NC3(CCCC3)C(=O)N(C)[C@@H]([C@@H](C)CC)C(=O)N(C)[C@H](C)CC(=O)N(C)[C@@H](CC(C)C)C(=O)N[C@@H]([C@@H](C)CC)C(=O)N(C)[C@@H](C)C(=O)N3CC[C@H]3C(=O)N(CC)[C@@H](Cc3ccc(C)cc3)C(=O)N(C)CC(=O)N[C@@H](CCc3ccc(C(F)(F)F)c(Cl)c3)C(=O)N2C1` [Compound 951] (cyclo([Ac5c][NMeI][NMedβ3hAla][NMeL]I[NMeA][Aze][NEtPhe(4-Me)][Sar][hPhe(3-Cl-4-CF3)][Hyp](Et))): the IC50 came to 7.9 nM.

In general, IC50 refers to the midpoint of a concentration-inhibition curve.
